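Tested at 5 concentrations; 48 h exposure; 96-well plates; endpoints linearly interpolated, else capped at highest concentration. At the GI50, growth is halved.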 The source made the active and inactive calls. Rule as the data show it: active = GI50 up to about 1.1 µM and inactive = higher.
Legend:
Test in all cases: DTP human tumour cell line panel, 48 h
786-0 = test system: 786-0
A498 = test system: A498
A549 = test system: A549
ACHN = test system: ACHN
BT-549 = test system: BT-549
CAKI-1 = test system: CAKI-1
COLO 205 = test system: COLO 205
DU-145 = test system: DU-145
EKVX = test system: EKVX
HCT-116 = test system: HCT-116
HCT-15 = test system: HCT-15
HL-60 = test system: HL-60
HOP-62 = test system: HOP-62
HOP-92 = test system: HOP-92
HT-29 = test system: HT-29
Hs-578T = test system: Hs-578T
IGROV-1 = test system: IGROV-1
K562 = test system: K562
KM12 = test system: KM12
LOX IMVI = test system: LOX IMVI
M14 = test system: M14
MCF7 = test system: MCF7
MDA-MB-231 = test system: MDA-MB-231
MDA-MB-435 = test system: MDA-MB-435
MDA-N = test system: MDA-N
MOLT-4 = test system: MOLT-4
Malme-3M = test system: Malme-3M
NCI-H226 = test system: NCI-H226
NCI-H23 = test system: NCI-H23
NCI-H522 = test system: NCI-H522
NCI/ADR-RES = test system: NCI/ADR-RES
OVCAR-3 = test system: OVCAR-3
OVCAR-4 = test system: OVCAR-4
OVCAR-5 = test system: OVCAR-5
OVCAR-8 = test system: OVCAR-8
PC-3 = test system: PC-3
RPMI-8226 = test system: RPMI-8226
RXF 393 = test system: RXF 393
SF-268 = test system: SF-268
SF-295 = test system: SF-295
SK-MEL-28 = test system: SK-MEL-28
SK-MEL-2 = test system: SK-MEL-2
SK-MEL-5 = test system: SK-MEL-5
SK-OV-3 = test system: SK-OV-3
SN12C = test system: SN12C
SNB-19 = test system: SNB-19
SR = test system: SR
SW-620 = test system: SW-620
T47D = test system: T47D
TK-10 = test system: TK-10
U-251 = test system: U-251
UACC-257 = test system: UACC-257
UACC-62 = test system: UACC-62
UO-31 = test system: UO-31
CCRF-CEM = test system: CCRF-CEM
HCC 2998 = test system: HCC 2998
NCI-H460 = test system: NCI-H460
SF-539 = test system: SF-539
SNB-75 = test system: SNB-75

## CC(C)(C)OC(=O)CCC1NC(=O)[C@@H]2Cc3c([nH]c4ccccc34)C(C3CCCCC3)N2C1=O (stereo partly specified)
786-0
  GI50: 35.3 µM (inactive)
A498
  GI50: 60.5 µM (inactive)
A549
  GI50: 26.4 µM (inactive)
ACHN
  GI50: 33.3 µM (inactive)
BT-549
  GI50: 48.8 µM (inactive)
CAKI-1
  GI50: 37.1 µM (inactive)
COLO 205
  GI50: 17.9 µM (inactive)
DU-145
  GI50: 57.3 µM (inactive)
EKVX
  GI50: 41.7 µM (inactive)
HCT-116
  GI50: 27 µM (inactive)
HCT-15
  GI50: 34.6 µM
HL-60
  GI50: 16.6 µM (inactive)
HOP-62
  GI50: 35.6 µM (inactive)
HOP-92
  GI50: 33.2 µM (inactive)
HT-29
  GI50: 18.6 µM (inactive)
Hs-578T
  GI50: 20.8 µM (inactive)
IGROV-1
  GI50: 36.8 µM (inactive)
K562
  GI50: 32.4 µM (inactive)
KM12
  GI50: 24.9 µM (inactive)
LOX IMVI
  GI50: 26.4 µM (inactive)
M14
  GI50: 27.4 µM (inactive)
MCF7
  GI50: 26.7 µM (inactive)
MDA-MB-231
  GI50: 22 µM (inactive)
MDA-MB-435
  GI50: 30.8 µM (inactive)
MDA-N
  GI50: 24.5 µM (inactive)
MOLT-4
  GI50: 12.4 µM (inactive)
Malme-3M
  GI50: 29.1 µM (inactive)
NCI-H226
  GI50: 36.2 µM (inactive)
NCI-H23
  GI50: 39.6 µM (inactive)
NCI-H522
  GI50: 30.3 µM (inactive)
NCI/ADR-RES
  GI50: 48.8 µM (inactive)
OVCAR-3
  GI50: 26.2 µM (inactive)
OVCAR-4
  GI50: 28.8 µM (inactive)
OVCAR-5
  GI50: 53.2 µM (inactive)
OVCAR-8
  GI50: 50.4 µM (inactive)
PC-3
  GI50: 18.8 µM (inactive)
RPMI-8226
  GI50: 16.4 µM (inactive)
RXF 393
  GI50: 20 µM (inactive)
SF-268
  GI50: 31.4 µM (inactive)
SF-295
  GI50: 23.1 µM (inactive)
SK-MEL-28
  GI50: 68.9 µM (inactive)
SK-MEL-2
  GI50: 22.8 µM (inactive)
SK-MEL-5
  GI50: 31 µM (inactive)
SK-OV-3
  GI50: 44.6 µM (inactive)
SN12C
  GI50: 22.4 µM (inactive)
SNB-19
  GI50: 41.9 µM (inactive)
SR
  GI50: 15.5 µM (inactive)
SW-620
  GI50: 44.4 µM (inactive)
T47D
  GI50: 27.9 µM (inactive)
TK-10
  GI50: 34.7 µM (inactive)
U-251
  GI50: 27 µM (inactive)
UACC-257
  GI50: 29.4 µM (inactive)
UACC-62
  GI50: 45.3 µM (inactive)
UO-31
  GI50: 41.5 µM (inactive)

## C/C(=N\NC(=S)N1CCOCC1)c1nc2cccnc2[nH]1
786-0
  GI50: > 10 µM (inactive)
A498
  GI50: > 100 µM (inactive)
A549
  GI50: 30.7 µM (inactive)
ACHN
  GI50: 25.4 µM (inactive)
BT-549
  GI50: 11.2 µM (inactive)
CAKI-1
  GI50: 66.8 µM (inactive)
CCRF-CEM
  GI50: 30.3 µM (inactive)
COLO 205
  GI50: 36.9 µM (inactive)
DU-145
  GI50: 39.9 µM (inactive)
EKVX
  GI50: 19.5 µM (inactive)
HCC 2998
  GI50: 78.3 µM (inactive)
HCT-116
  GI50: 27.8 µM (inactive)
HCT-15
  GI50: 53.5 µM
HL-60
  GI50: 24.5 µM (inactive)
HOP-62
  GI50: 24.9 µM (inactive)
HOP-92
  GI50: 14.1 µM (inactive)
HT-29
  GI50: 37.2 µM (inactive)
Hs-578T
  GI50: 39.2 µM (inactive)
IGROV-1
  GI50: 47.1 µM (inactive)
K562
  GI50: 51.9 µM (inactive)
KM12
  GI50: 67 µM (inactive)
LOX IMVI
  GI50: 29.4 µM (inactive)
M14
  GI50: 68.2 µM (inactive)
MCF7
  GI50: 30.5 µM (inactive)
MDA-MB-231
  GI50: 28.9 µM (inactive)
MDA-MB-435
  GI50: > 100 µM (inactive)
MDA-N
  GI50: > 100 µM (inactive)
MOLT-4
  GI50: 32.2 µM (inactive)
Malme-3M
  GI50: > 100 µM (inactive)
NCI-H226
  GI50: 38.5 µM (inactive)
NCI-H23
  GI50: 35.2 µM (inactive)
NCI-H460
  GI50: 31.4 µM (inactive)
NCI-H522
  GI50: 18.8 µM (inactive)
NCI/ADR-RES
  GI50: 80.5 µM (inactive)
OVCAR-3
  GI50: 31 µM (inactive)
OVCAR-4
  GI50: 13.7 µM (inactive)
OVCAR-5
  GI50: 59.6 µM (inactive)
OVCAR-8
  GI50: 21.4 µM (inactive)
PC-3
  GI50: 27.9 µM (inactive)
RPMI-8226
  GI50: 42.6 µM (inactive)
SF-268
  GI50: 24.8 µM (inactive)
SF-295
  GI50: 23.8 µM (inactive)
SF-539
  GI50: 19.3 µM (inactive)
SK-MEL-28
  GI50: 74.1 µM (inactive)
SK-MEL-2
  GI50: 17.9 µM (inactive)
SK-MEL-5
  GI50: 27.6 µM (inactive)
SK-OV-3
  GI50: 36.6 µM (inactive)
SN12C
  GI50: 74 µM (inactive)
SNB-19
  GI50: 21.9 µM (inactive)
SNB-75
  GI50: 18.2 µM (inactive)
SR
  GI50: 49.5 µM (inactive)
SW-620
  GI50: 43 µM (inactive)
T47D
  GI50: 29.4 µM (inactive)
TK-10
  GI50: 31.8 µM (inactive)
U-251
  GI50: 21.6 µM (inactive)
UACC-257
  GI50: 26 µM (inactive)
UACC-62
  GI50: 37.7 µM (inactive)
UO-31
  GI50: 17.5 µM (inactive)

## Cc1ccc(S(=O)(=O)N(CC(O)COc2ccccc2)c2c(F)c(F)cc(F)c2F)cc1 (stereo unspecified)
786-0
  GI50: 22.3 µM (inactive)
A498
  GI50: 20.3 µM (inactive)
A549
  GI50: 21.9 µM (inactive)
ACHN
  GI50: 21.2 µM (inactive)
BT-549
  GI50: 24.5 µM (inactive)
CAKI-1
  GI50: 15.3 µM (inactive)
CCRF-CEM
  GI50: 33.4 µM (inactive)
COLO 205
  GI50: 15.7 µM (inactive)
DU-145
  GI50: 40.8 µM (inactive)
EKVX
  GI50: 27.9 µM (inactive)
HCC 2998
  GI50: 23.6 µM (inactive)
HCT-116
  GI50: 37 µM (inactive)
HCT-15
  GI50: 20.9 µM
HL-60
  GI50: 4.21 µM (inactive)
HOP-62
  GI50: 21.3 µM (inactive)
HOP-92
  GI50: 11.7 µM (inactive)
HT-29
  GI50: 16.8 µM (inactive)
Hs-578T
  GI50: 24.3 µM (inactive)
KM12
  GI50: 25.7 µM (inactive)
LOX IMVI
  GI50: 16.6 µM (inactive)
M14
  GI50: 23.7 µM (inactive)
MCF7
  GI50: 16.4 µM (inactive)
MDA-MB-231
  GI50: 18.3 µM (inactive)
MDA-MB-435
  GI50: 16.9 µM (inactive)
MDA-N
  GI50: 17.2 µM (inactive)
MOLT-4
  GI50: < 0.01 µM (active)
Malme-3M
  GI50: 23.1 µM (inactive)
NCI-H226
  GI50: 23.1 µM (inactive)
NCI-H23
  GI50: 18.8 µM (inactive)
NCI-H460
  GI50: 16.7 µM (inactive)
NCI/ADR-RES
  GI50: 18.1 µM (inactive)
OVCAR-3
  GI50: 20.5 µM (inactive)
OVCAR-4
  GI50: 18.7 µM (inactive)
OVCAR-5
  GI50: 29 µM (inactive)
OVCAR-8
  GI50: 22.4 µM (inactive)
PC-3
  GI50: 18.3 µM (inactive)
RPMI-8226
  GI50: 18.7 µM (inactive)
SF-268
  GI50: 18.7 µM (inactive)
SF-295
  GI50: 24 µM (inactive)
SF-539
  GI50: 20 µM (inactive)
SK-MEL-28
  GI50: 19.5 µM (inactive)
SK-MEL-2
  GI50: 17.2 µM (inactive)
SK-MEL-5
  GI50: 15.9 µM (inactive)
SK-OV-3
  GI50: 19.4 µM (inactive)
SN12C
  GI50: 22.5 µM (inactive)
SNB-19
  GI50: 27.6 µM (inactive)
SNB-75
  GI50: 20.5 µM (inactive)
SR
  GI50: 3.53 µM (inactive)
SW-620
  GI50: 30.3 µM (inactive)
T47D
  GI50: 19.7 µM (inactive)
TK-10
  GI50: 32.9 µM (inactive)
U-251
  GI50: 21 µM (inactive)
UACC-62
  GI50: 16.6 µM (inactive)
UO-31
  GI50: 20.4 µM (inactive)

Reference: ChEMBL document CHEMBL1201862, “PubChem BioAssay data set” (2004)
